Results taken from ChEMBL document CHEMBL1799989 (Bioorg Med Chem Lett, 2011).
Several values for one entry are separate records, joined by “and”; a condition that tells them apart may be missing. Identical values can stand only once.

Experiments:
[1] = target: Mitogen-activated protein kinase 14 (Homo sapiens, UniProt Q16539); test: Inhibition of p38alpha assessed as phosphorylation FITC-labeled Hsp27 after 60 mins by fluorescence based cascade assay
[2] = (§1) Metabolic stability in rat liver microsomes assessed as compound remaining at 2 uM after 45 mins by LC/MS analysis in presence of NADPH; assay type: ADME, Microsome; details: liver microsomes, read-out: Stability
[3] = system: PBMC; test: Antiinflammatory activity in human PBMC assessed as inhibition of LPS-induced TNFalpha release pretreated for 1 hr before LPS treatment measured after 18 hrs; assay type: functional, cell-based
[4] = (§2) Metabolic stability in human liver microsomes assessed as compound remaining at 2 uM after 45 mins by LC/MS analysis in presence of NADPH; assay type: ADME, Microsome; details: liver microsomes, read-out: Stability
[5] = system: Rattus norvegicus; test: Antiinflammatory activity in fasted Lewis rat assessed as inhibition of LPS-induced TNFalpha production at 5 mg/kg, po administered 4 hrs prior LPS challenge measured after 90 mins by ELISA; assay type: functional; details: for inhibition in vivo at 5 mg/kg: Rattus norvegicus, Lewis, po
[6] = system: Rattus norvegicus; test: Antiarthritic activity in Lewis rat assessed as inhibition of streptococcal cell wall-induced paw swelling at 10 mg/kg/day, po administered on day 10 of streptococcal cell wall challenge continued until day 21 by plethysmometer; assay type: functional
[7] = system: Rattus norvegicus; test: Antiarthritic activity in Lewis rat assessed as inhibition of streptococcal cell wall-induced paw swelling at 60 mg/kg/day, po administered on day 10 of streptococcal cell wall challenge continued until day 21 by plethysmometer; assay type: functional
[8] = system: Rattus norvegicus; test: Antiarthritic activity in Lewis rat assessed as inhibition of streptococcal cell wall-induced paw swelling at 30 mg/kg/day, po administered on day 10 of streptococcal cell wall challenge continued until day 21 by plethysmometer; assay type: functional
[9] = system: Liver microsomes; test: as §1; assay type: ADME, Microsome; details: microsomes, 0.75 h, 2 µM
[10] = system: Liver microsomes; test: as §2; assay type: ADME, Microsome; details: microsomes, 0.75 h, 2 µM
[11] = system: Rattus norvegicus; test: Antiarthritic activity in Lewis rat assessed as inhibition of streptococcal cell wall-induced paw swelling at 2 mg/kg/day, po administered on day 10 of streptococcal cell wall challenge continued until day 21 by plethysmometer; assay type: functional
[12] = Solubility of the compound in phosphate buffer at pH 7; assay type: physicochemical
[13] = Apparent permeability across apical to basolateral side in human Caco2 cells at 1 uM; assay type: ADME, cell-based; details: Caco-2
[14] = Apparent permeability across apical to basolateral side in human Caco2 cells at 100 uM; assay type: ADME, cell-based; details: Caco-2
[15] = Half life in Sprague-Dawley rat administered as crystalline form; assay type: ADME, organism-based; details: in vivo
[16] = Half life in Beagle dog administered as crystalline form; assay type: ADME, organism-based, Canis lupus familiaris; details: in vivo
[17] = Half life in cynomolgus monkey administered as crystalline form; assay type: ADME, organism-based, Macaca fascicularis; details: in vivo
[18] = Oral bioavailability in cynomolgus monkey administered as crystalline form; assay type: ADME, organism-based, Macaca fascicularis; details: in vivo
[19] = Oral bioavailability in Sprague-Dawley rat administered as crystalline form; assay type: ADME, organism-based; details: in vivo
[20] = Oral bioavailability in cynomolgus monkey administered as solution; assay type: ADME, organism-based, Macaca fascicularis; details: in vivo
[21] = Oral bioavailability in Beagle dog administered as solution; assay type: ADME, organism-based, Canis lupus familiaris; details: in vivo
[22] = Oral bioavailability in Sprague-Dawley rat at 15 mg/kg administered as solution; assay type: ADME, organism-based; details: in vivo
[23] = Oral bioavailability in Sprague-Dawley rat at 2 mg/kg administered as solution; assay type: ADME, organism-based; details: in vivo

Chain of Mitogen-activated protein kinase 14 (Q16539 whole entry): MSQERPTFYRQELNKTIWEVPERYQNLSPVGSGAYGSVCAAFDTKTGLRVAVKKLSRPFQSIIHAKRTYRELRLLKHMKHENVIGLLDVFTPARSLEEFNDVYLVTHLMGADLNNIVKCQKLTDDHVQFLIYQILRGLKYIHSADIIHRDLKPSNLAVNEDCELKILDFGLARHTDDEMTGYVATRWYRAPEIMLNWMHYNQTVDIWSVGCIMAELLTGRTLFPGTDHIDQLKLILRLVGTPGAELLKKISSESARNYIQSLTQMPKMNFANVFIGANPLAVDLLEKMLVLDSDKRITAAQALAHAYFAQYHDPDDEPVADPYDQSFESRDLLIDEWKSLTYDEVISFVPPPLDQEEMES

Row | IC50 [1] | remaining at 0.75 h, 2 µM [2] | remaining at 0.75 h, 2 µM [4] | Compound | IC50 ([3]; Homo sapiens, PBMC) | inhibition in vivo at 5 mg/kg [5] | further results
1 | 2 nM | 100% | 84% | Cc1ccc(C(N)=O)cc1-n1c(C)cc(OCc2ccc(F)cc2F)c(Br)c1=O | 2.5 nM | 98% | inhibition in vivo at 10 mg/kg/day [6]: 87%
2 | 9.5 nM | 71% | 75% | Cc1ccc(C(=O)N(C)C)cc1-n1c(C)cc(OCc2ccc(F)cc2F)c(Br)c1=O | 28.5 nM | 96% | inhibition in vivo at 60 mg/kg/day [7]: 74%
3 | 34 nM | 86% | 93% | CNC(=O)c1ccc(-n2c(C)cc(OCc3ccc(F)cc3F)c(Br)c2=O)c(C)c1 | 156 nM | 54% | –
4 | – | 95% | 91% | CNC(=O)c1ccc(C)c(-n2c(C)cc(OCc3ccc(F)cc3F)c(Br)c2=O)c1 [PH-797804] | – | – | Stability [9]: 100%; IC50 ([3]; pbmc): 15 nM and 3.4 nM; Stability [10]: 98% and 92%; inhibition (INH) ([5]; 5 mg/kg): 95% and 38%; inhibition in vivo at 2 mg/kg/day [11]: 80%; solubility [12]: < 5 µg/mL; Papp A→B at 1 µM [13]: 10 ×10⁻⁶ cm/s; Papp A→B at 100 µM [14]: 25 ×10⁻⁶ cm/s; half-life [15]: 2.6 h; half-life [16]: 11.4 h; half-life [17]: 3.93 h; bioavailability [18]: 23.2%; bioavailability [19]: 35.7%; bioavailability [20]: 36.2%; bioavailability [21]: 59.6%; bioavailability [22]: 80.4%; bioavailability [23]: > 100%

More lines, now with the values behind:

Row | Compound | IC50 [1] | remaining at 0.75 h, 2 µM [2] | remaining at 0.75 h, 2 µM [4] | IC50 ([3]; Homo sapiens, PBMC) | inhibition in vivo at 5 mg/kg [5] | further results
5 | CNC(=O)c1cccc(-n2c(C)cc(OCc3ccc(F)cc3F)c(Br)c2=O)c1C | 48.5 nM | 91% | 89% | 193 nM | 61% | –
6 | CNC(=O)c1ccc(F)c(-n2c(C)cc(OCc3ccc(F)cc3F)c(Br)c2=O)c1 | 8.5 nM | – | – | 46 nM | 83% | –
7 | CNC(=O)c1ccc(Cl)c(-n2c(C)cc(OCc3ccc(F)cc3F)c(Br)c2=O)c1 | 3 nM | – | – | 18 nM | 89% | inhibition in vivo at 30 mg/kg/day [8]: 90%
8 | CNC(=O)c1ccc(OC)c(-n2c(C)cc(OCc3ccc(F)cc3F)c(Br)c2=O)c1 | 21 nM | – | – | 107 nM | 20% | –
9 | CNC(=O)c1ccc(C(=O)O)c(-n2c(C)cc(OCc3ccc(F)cc3F)c(Br)c2=O)c1 | > 10000 nM | – | – | > 25000 nM | – | –
10 | CNC(=O)c1ccc(CO)c(-n2c(C)cc(OCc3ccc(F)cc3F)c(Br)c2=O)c1 | 325 nM | – | – | – | – | –
11 | CNC(=O)c1ccc(C)c(-n2c(CO)cc(OCc3ccc(F)cc3F)c(Br)c2=O)c1 | 4 nM | – | – | 16 nM | 1% | –
